The values that follow come from patent publication US20080280879A1, “SUBSTITUTED HETEROCYCLIC DERIVATIVES AND THEIR PHARMACEUTICAL USE AND COMPOSITIONS” (priority 2007, published 2008).

Holding throughout (type): cell-based, Staphylococcus aureus
The test system of one assay is Staph aureus 1095 MRSA. Kind of assay: MIC, microtiter broth dilution (CLSI M7-A7), Assay 1, Table 12 column A, no serum. Conditions: Assay 1, no serum; for MIC: Staphylococcus aureus, MRSA. In outline: (§1)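 Compounds were prepared in DMSO at 10 mg/ml, then tested by microtiter broth dilution following CLSI M7-A7. Growth was scored visually, and the MIC taken as the lowest concentration without macroscopically visible growth. Where tested repeatedly, the geometric mean is given.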
For orientation: Broth dilution looks for growth in wells or tubes with falling amounts of substance.

Assay [1] relates to Staph aureus 1146. Kind of assay: MIC, microtiter broth dilution (CLSI M7-A7), Assay 1, Table 12 column B, no serum. Conditions: for MIC: Staphylococcus aureus, 1146, Staph aureus 1146, Assay 1, no serum; for MIC, column B: Staph aureus 1146, Assay 1, no serum. In outline:
as §1

For assay [2], the system named is Staph aureus 1146. Kind of assay: MIC in Mueller-Hinton Broth with 50% pooled inactivated human serum, Assay 1, Table 12. Conditions: for MIC: Staphylococcus aureus, 1146, Staph aureus 1146, Assay 1, 50% human serum, read-out: MIC, column C; for MIC, column C: Staph aureus 1146, Assay 1, 50% human serum. Summed up: as §1
The subject of another assay is Staph aureus 2811. Kind of assay: MIC, microtiter broth dilution (CLSI M7-A7), Assay 1, Table 12 column D, no serum. Conditions: for MIC: Staphylococcus aureus, 2811, Staph aureus 2811, Assay 1, no serum; for MIC, column D: Staph aureus 2811, Assay 1, no serum. In outline:
as §1

The next assay concerns Staph aureus 2812. Nature of the assay: MIC, microtiter broth dilution (CLSI M7-A7), Assay 1, Table 12 column E, no serum. Conditions: for MIC: Staphylococcus aureus, 2812, Staph aureus 2812, Assay 1, no serum; for MIC, column E: Staph aureus 2812, Assay 1, no serum. Summed up:
as §1

For orientation: MIC means the least concentration at which growth counts as inhibited.

In brackets after ≈: the same amount, converted by molar mass.

Turning to `COc1ccc2ncc(Cl)c(C(O)CCC3(C(=O)O)CCN(C4CC(c5cc(F)ccc5F)C4)C3)c2c1` (stereo not shown) [Example 184, 3-[3-(3-chloro-6-methoxyquinolin-4-yl)-3-hydroxypropyl]-1-[3-(2,5-difluorophenyl)cyclobutyl] pyrrolidine-3-carboxylic acid], the MIC was 0.25 µg/mL (≈ 0.471 µM) against Staph aureus 1095 MRSA; less than 0.0625 µg/mL in the assay with Staph aureus 1146 [1]; 8 µg/mL (≈ 15.1 µM) in the assay on Staph aureus 1146 [2]; less than 0.0625 µg/mL with Staph aureus 2811; less than 0.0625 µg/mL with Staph aureus 2812.

On to `COc1ccc2nccc(C(O)CC[C@@H]3CCN(C4CCN(c5ccccc5)C4)C[C@@H]3C(=O)O)c2c1` (stereo partly drawn) [Example 185, (3R,4R)-4-[3-hydroxy-3-(6-methoxyquinolin4-yl)propyl]-1-(1-phenylpyrrolidin-3-yl)piperidine-3-carboxylic acid], for which the MIC was 8 µg/mL (≈ 16.3 µM) against Staph aureus 1095 MRSA; 2 µg/mL (≈ 4.08 µM) with Staph aureus 1146 [1]; greater than 64 µg/mL in the assay with Staph aureus 1146 [2]; 8 µg/mL (≈ 16.3 µM) against Staph aureus 2811; 4 µg/mL (≈ 8.17 µM) against Staph aureus 2812.

As for `COc1ccc2ncc(Cl)c(C(O)CC[C@@H]3CCN(C4CC(c5cc(F)ccc5F)C4)C[C@@H]3C(=O)O)c2c1` (stereo partly drawn) [Example 186, (3R,4R)-4-[3-(3-chloro-6-methoxyquinolin-4-yl)-3-hydroxypropyl]-1-[3-(2,5-difluorophenyl)cyclobutyl]piperidine-3-carboxylic acid], the “MIC, column A” value against Staph aureus 1095 MRSA was less than 0.0625 µg/mL. Further, the MIC with Staph aureus 1146 [1] and in the assay with Staph aureus 2811 was less than 0.0625 µg/mL in each case. The “MIC, column C” value with Staph aureus 1146 [2] stood at 2.00 µg/mL (≈ 3.67 µM). For the same compound, the “MIC, column E” value against Staph aureus 2812 was less than 0.0625 µg/mL.

With `COc1ccc2ncc(Cl)c(C(O)CC[C@@H]3CCN(C4CC(c5ccccc5)C4)C[C@@H]3C(=O)O)c2c1` (stereo partly drawn) [Example 187, (3R,4R)-4-[3-(3-chloro-6-methoxyquinolin-4-yl)-3-hydroxypropyl]-1-(3-phenylcyclobutyl)piperidine-3-carboxylic acid], the MIC with Staph aureus 1095 MRSA, in the assay with Staph aureus 1146 [1], with Staph aureus 2811 and with Staph aureus 2812 was less than 0.0625 µg/mL in each case. Besides, the “MIC, column C” value against Staph aureus 1146 [2] turned out to be 1.00 µg/mL (≈ 1.96 µM).

Consider `COc1ccc2ncc(Cl)c(C(O)CC[C@@H]3CCN(C4CC(c5c(F)cccc5F)C4)C[C@@H]3C(=O)O)c2c1` (stereo partly drawn) [Example 188, (3R,4R)-4-[3-(3-chloro-6-methoxyquinolin-4-yl)-3-hydroxypropyl]-1-[3-(2,6-difluorophenyl)cyclobutyl]piperidine-3-carboxylic acid], for which the MIC in the assay on Staph aureus 1095 MRSA, against Staph aureus 1146 [1], with Staph aureus 2811 and in the assay with Staph aureus 2812 was less than 0.0625 µg/mL each time. Further, the “MIC, column C” value with Staph aureus 1146 [2] is 0.500 µg/mL (≈ 0.917 µM).

Regarding `COc1ccc2ncc(F)c(C(O)CC[C@@H]3CCN(C4CC(c5c(F)cccc5F)C4)C[C@@H]3C(=O)O)c2n1` (stereo partly drawn) [Example 189, (3R,4R)-1-[3-(2,6-difluorophenyl)cyclobutyl]-4-[3-(3-fluoro-6-methoxy-1,5-naphthyridin-4-yl)-3-hydroxypropyl]piperidine-3-carboxylic acid], the “MIC, column A” value with Staph aureus 1095 MRSA was less than 0.0625 µg/mL. For the same compound, in the assay with Staph aureus 1146 [1], the “MIC, column B” value was less than 0.0625 µg/mL. Besides, in the assay on Staph aureus 1146 [2], the “MIC, column C” value was found to be 0.125 µg/mL (≈ 0.236 µM). Besides, the “MIC, column D” value against Staph aureus 2811 is less than 0.0625 µg/mL. In addition, the “MIC, column E” value against Staph aureus 2812 is less than 0.0625 µg/mL.

With `COc1ccc2ncc(F)c(C(O)CC[C@@H]3CCN(C4CC(c5c(F)cccc5F)C4)C[C@@H]3C(=O)O)c2n1` (stereo partly drawn) [Example 190, (3R,4R)-1-[3-(2,6-difluorophenyl)cyclobutyl]-4-[3-(3-fluoro-6-methoxy-1,5-naphthyridin-4-yl)-3-hydroxypropyl]piperidine-3-carboxylic acid], the “MIC, column A” value in the assay with Staph aureus 1095 MRSA is less than 0.0625 µg/mL. Also, in the assay with Staph aureus 1146 [1], the “MIC, column B” value is less than 0.0625 µg/mL. Besides, the “MIC, column C” value in the assay with Staph aureus 1146 [2] came out at 1.00 µg/mL (≈ 1.89 µM). Besides, in the assay on Staph aureus 2811, the “MIC, column D” value is less than 0.0625 µg/mL. The “MIC, column E” value in the assay on Staph aureus 2812 is 0.125 µg/mL (≈ 0.236 µM).

As to `COc1ccc2nccc([C@@H](O)CC[C@@H]3CCN(C4CC(c5cc(F)c(F)cc5F)C4)C[C@@H]3C(=O)O)c2c1` (stereo partly drawn) [Example 191, (3R,4R)-4-[(3S)-3-hydroxy-3-(6-methoxyquinolin-4-yl)propyl]-1-[3-(2,4,5-trifluorophenyl)cyclobutyl] piperidine-3-carboxylic acid], the minimum inhibitory concentration (MIC) against Staph aureus 1095 MRSA was 0.125 µg/mL (≈ 0.236 µM); in the assay on Staph aureus 1146 [1], less than 0.0625 µg/mL; in the assay with Staph aureus 1146 [2], 1 µg/mL (≈ 1.89 µM); in the assay with Staph aureus 2811, less than 0.0625 µg/mL; against Staph aureus 2812, less than 0.0625 µg/mL.

In the case of `COc1ccc2nccc(C(O)CC[C@@H]3CCN(C4CC(Cc5cccc(F)c5)C4)C[C@@H]3C(=O)O)c2c1` (stereo partly drawn) [Example 192, (3R,4R)-1-[3-(3-fluorobenzyl)cyclobutyl]-4-[3-hydroxy-3-(6-methoxyquinolin-4-yl)propyl]piperidine-3-carboxylic acid], the MIC amounted to 4 µg/mL (≈ 7.9 µM) against Staph aureus 1095 MRSA; 1 µg/mL (≈ 1.97 µM) in the assay with Staph aureus 1146 [1]; 32 µg/mL (≈ 63.2 µM) in the assay with Staph aureus 1146 [2]; 1 µg/mL (≈ 1.97 µM) with Staph aureus 2811; 2 µg/mL (≈ 3.95 µM) in the assay with Staph aureus 2812.

As to `COc1ccc2nccc([C@@H](O)CC[C@@H]3CCN(C4CC(c5cccc(C(F)(F)F)c5F)C4)C[C@@H]3C(=O)O)c2c1` (stereo partly drawn) [Example 193, (3R,4R)-1-{3-[2-fluoro-3-(trifluoromethyl)phenyl]cyclobutyl}-4-[(3S)-3-hydroxy-3-(6-methoxyquinolin-4-yl)propyl]piperidine-3-carboxylic acid], the MIC in the assay with Staph aureus 1095 MRSA came out at 0.5 µg/mL (≈ 0.892 µM); with Staph aureus 1146 [1], 0.125 µg/mL (≈ 0.223 µM); in the assay with Staph aureus 1146 [2], 64 µg/mL (≈ 114 µM); with Staph aureus 2811 it was 0.125 µg/mL (≈ 0.223 µM); in the assay with Staph aureus 2812, 0.125 µg/mL (≈ 0.223 µM).

In the case of `COc1ccc2nccc([C@@H](O)CC[C@@H]3CCN(C4CC(c5ccc(C(F)(F)F)cc5F)C4)C[C@@H]3C(=O)O)c2c1` (stereo partly drawn) [Example 194, (3R,4R)-1-{3-[2-fluoro-4-(trifluoromethyl)phenyl]cyclobutyl}-4-[(3S)-3-hydroxy-3-(6-methoxyquinolin-4-yl)propyl]piperidine-3-carboxylic acid], the MIC in the assay with Staph aureus 1095 MRSA was 4 µg/mL (≈ 7.14 µM); in the assay with Staph aureus 1146 [1] it was 2 µg/mL (≈ 3.57 µM); in the assay with Staph aureus 1146 [2] it was greater than 64 µg/mL; in the assay with Staph aureus 2811 it was 2 µg/mL (≈ 3.57 µM); against Staph aureus 2812, 2 µg/mL (≈ 3.57 µM).

`COc1ccc2nccc([C@@H](O)CC[C@@H]3CCN(C4CC(c5c(F)ccc(F)c5F)C4)C[C@@H]3C(=O)O)c2c1` (stereo partly drawn) [Example 195, (3R,4R)-4-[(3S)-3-hydroxy-3-(6-methoxyquinolin-4-yl)propyl]-1-[3-(2,3,6-trifluorophenyl)cyclobutyl] piperidine-3-carboxylic acid]: the MIC against Staph aureus 1095 MRSA is less than 0.0625 µg/mL; with Staph aureus 1146 [1] it was less than 0.0625 µg/mL; in the assay with Staph aureus 1146 [2], 1 µg/mL (≈ 1.89 µM); in the assay with Staph aureus 2811, less than 0.0625 µg/mL; in the assay on Staph aureus 2812, less than 0.0625 µg/mL.

As for `COc1ccc2nccc([C@@H](O)CC[C@@H]3CCN(C4CC(c5ccc(Br)cc5F)C4)C[C@@H]3C(=O)O)c2c1` (stereo partly drawn) [Example 196, (3R,4R)-1-[3-(4-bromo-2-fluorophenyl)cyclobutyl]-4-[(3S)-3-hydroxy-3-(6-methoxyquinolin-4-yl)propyl] piperidine-3-carboxylic acid], the minimal inhibitory concentration (MIC) in the assay on Staph aureus 1095 MRSA came out at 8 µg/mL (≈ 14 µM); against Staph aureus 1146 [1], 1 µg/mL (≈ 1.75 µM); in the assay with Staph aureus 1146 [2], 64 µg/mL (≈ 112 µM); against Staph aureus 2811, 1 µg/mL (≈ 1.75 µM); in the assay on Staph aureus 2812, 2 µg/mL (≈ 3.5 µM).

`COc1ccc2nccc([C@@H](O)CC[C@@H]3CCN(C4CC(c5ccc(F)c(F)c5F)C4)C[C@@H]3C(=O)O)c2c1` (stereo partly drawn) [Example 197, (3R,4R)-4-[(3S)-3-hydroxy-3-(6-methoxyquinolin-4-yl)propyl]-1-[3-(2,3,4-trifluorophenyl)cyclobutyl] piperidine-3-carboxylic acid]: the MIC in the assay on Staph aureus 1095 MRSA was 0.5 µg/mL (≈ 0.946 µM); in the assay on Staph aureus 1146 [1], less than 0.0625 µg/mL; in the assay with Staph aureus 1146 [2], 4 µg/mL (≈ 7.57 µM); in the assay on Staph aureus 2811 it was less than 0.0625 µg/mL; in the assay on Staph aureus 2812, less than 0.0625 µg/mL.

Turning to `COc1ccc2ncc(Cl)c(CCCC3(C(=O)O)CCN(C[C@@H]4C[C@H]4c4cc(F)ccc4F)C3)c2c1` (stereo partly drawn) [Example 198, 3-[3-(3-chloro-6-methoxyquinolin-4-yl)propyl]-1-{[(1R,2R)-2-(2,5-difluorophenyl)cyclopropyl]methyl} pyrrolidine-3-carboxylic acid], the MIC against Staph aureus 1095 MRSA was 0.125 µg/mL (≈ 0.243 µM); in the assay with Staph aureus 1146 [1], less than 0.0625 µg/mL; in the assay on Staph aureus 1146 [2], greater than 64 µg/mL; in the assay with Staph aureus 2811, less than 0.0625 µg/mL; against Staph aureus 2812, less than 0.0625 µg/mL.

As for `COc1ccc2ncc(Cl)c(CCCC3(C(=O)O)CCN(C4CCC(c5cc(F)ccc5F)C4)C3)c2c1` (stereo not shown) [Example 199, 3-[3-(3-chloro-6-methoxyquinolin-4-yl)propyl]-1-[3-(2,5-difluorophenyl)cyclopentyl]pyrrolidine-3-carboxylic acid], the MIC is 0.125 µg/mL (≈ 0.236 µM) against Staph aureus 1095 MRSA; less than 0.0625 µg/mL in the assay with Staph aureus 1146 [1]; greater than 64 µg/mL with Staph aureus 1146 [2]; less than 0.0625 µg/mL with Staph aureus 2811; less than 0.0625 µg/mL against Staph aureus 2812.

Regarding `COc1ccc2nccc([C@@H](O)CC[C@@H]3CCN(C4CC(c5c(F)cccc5F)C4(C)C)C[C@@H]3C(=O)O)c2c1` (stereo partly drawn) [Example 200, (3R,4R)-1-[3-(2,6-difluorophenyl)-2,2-dimethylcyclobutyl]-4-[(3S)-3-hydroxy-3-(6-methoxyquinolin-4-yl)propyl]piperidine-3-carboxylic acid], the MIC was 32 µg/mL (≈ 59.4 µM) against Staph aureus 1095 MRSA; 8 µg/mL (≈ 14.9 µM) against Staph aureus 1146 [1]; greater than 64 µg/mL in the assay on Staph aureus 1146 [2]; 8 µg/mL (≈ 14.9 µM) against Staph aureus 2811; 8 µg/mL (≈ 14.9 µM) in the assay on Staph aureus 2812.
